Entries after “also recorded” stand apart in the source; their conditions may differ.
Key:
[1] = DEXA scan of the femoral neck (T-score, Z-score, BMD) in PBC subjects, 12 months OCA or placebo; assay type: in vivo, human; details: for Femoral Neck Scan: Bone Mineral Density, Change From Baseline, Mean / Femoral Neck Scan: Bone Mineral Density, Change From Baseline, Median / Femoral Neck Scan: Bone Mineral Density, Result, Mean / Femoral Neck Scan: Bone Mineral Density, Result, Median / Femoral Neck Scan: T-Score, Change From Baseline, Mean / Femoral Neck Scan: T-Score, Change From Baseline, Median / Femoral Neck Scan: T-Score, Result, Mean / Femoral Neck Scan: T-Score, Result, Median / Femoral Neck Scan: Z-Score, Change From Baseline, Mean / Femoral Neck Scan: Z-Score, Change From Baseline, Median / Femoral Neck Scan: Z-Score, Result, Mean / Femoral Neck Scan: Z-Score, Result, Median / Femoral Neck Scan: Bone Mineral Density, Change From Baseline, LS Mean / Femoral Neck Scan: Bone Mineral Density, Change From Baseline, OCA - Placebo mean difference / Femoral Neck Scan: T-Score, Change From Baseline, LS Mean / Femoral Neck Scan: T-Score, Change From Baseline, OCA - Placebo mean difference / Femoral Neck Scan: Z-Score, Change From Baseline, LS Mean / Femoral Neck Scan: Z-Score, Change From Baseline, OCA - Placebo mean difference: orally once daily, DB Month 12, subjects with PBC; for Femoral Neck Scan: Bone Mineral Density, Change From Baseline, LS Mean / Femoral Neck Scan: Bone Mineral Density, Change From Baseline, OCA - Placebo mean difference / Femoral Neck Scan: T-Score, Change From Baseline, LS Mean / Femoral Neck Scan: T-Score, Change From Baseline, OCA - Placebo mean difference / Femoral Neck Scan: Z-Score, Change From Baseline, LS Mean / Femoral Neck Scan: Z-Score, Change From Baseline, OCA - Placebo mean difference: ANCOVA
Method: (§1) PBC patients are randomized to three groups: (a) placebo (PCB), (b) 10 mg OCA, or (c) 5 mg (month 0-6) titrating to 10 mg (month 7-12) OCA. Study medication is administered orally, once daily for 12 months. For patients under pretreatment ursodeoxycholic acid (UDCA) treatment, the pre-treatment dose of UDCA is continued throughout their treatment. Bone density is measured by DEXA scans. DEXA scans of the lumbar spine and femoral neck are conducted at Day 0 and Month 12. Additional measurement may be conducted after Month 12 (e.g., annually after Month 12) as necessary and appropriate. The timing of the DEXA scans is not critical, and may be conducted±2 weeks. […] Subjects with PBC±UDCA (if taking UDCA, patients were maintained on a stable dose) with ALP≧1.67×ULN or bilirubin<2×ULN were randomized to placebo (PBO), OCA 5 or 10 mg for 12 months. Subjects on 5 mg were titrated to 10 mg after 6 months (OCA Titration) based on clinical response and tolerability. Dual-emission X-ray absorptiometry (DEXA) scan was used to assess BMD in a subset of subjects prior to and following 12 months of OCA or placebo treatment. Changes from baseline at Month 12 were analyzed using an ANCOVA model with baseline values as a covariate. Osteopenia and osteoporosis were based on WHO thresholds: T score −1.0 to ≦−2.5 […].

[2] = DEXA scan of the lumbar spine (T-score, Z-score, BMD) in PBC subjects, 12 months OCA or placebo; assay type: in vivo, human; details: for Lumbar Spine Scan: Bone Mineral Density, Change From Baseline, Mean / Lumbar Spine Scan: Bone Mineral Density, Change From Baseline, Median / Lumbar Spine Scan: Bone Mineral Density, Result, Mean / Lumbar Spine Scan: Bone Mineral Density, Result, Median / Lumbar Spine Scan: T-Score, Change From Baseline, Mean / Lumbar Spine Scan: T-Score, Change From Baseline, Median / Lumbar Spine Scan: T-Score, Result, Mean / Lumbar Spine Scan: T-Score, Result, Median / Lumbar Spine Scan: Z-Score, Change From Baseline, Mean / Lumbar Spine Scan: Z-Score, Change From Baseline, Median / Lumbar Spine Scan: Z-Score, Result, Mean / Lumbar Spine Scan: Z-Score, Result, Median / Lumbar Spine Scan: Bone Mineral Density, Change From Baseline, LS Mean / Lumbar Spine Scan: Bone Mineral Density, Change From Baseline, OCA - Placebo mean difference / Lumbar Spine Scan: T-Score, Change From Baseline, LS Mean / Lumbar Spine Scan: T-Score, Change From Baseline, OCA - Placebo mean difference / Lumbar Spine Scan: Z-Score, Change From Baseline, LS Mean / Lumbar Spine Scan: Z-Score, Change From Baseline, OCA - Placebo mean difference: orally once daily, DB Month 12, subjects with PBC; for Lumbar Spine Scan: Bone Mineral Density, Change From Baseline, LS Mean / Lumbar Spine Scan: Bone Mineral Density, Change From Baseline, OCA - Placebo mean difference / Lumbar Spine Scan: T-Score, Change From Baseline, LS Mean / Lumbar Spine Scan: T-Score, Change From Baseline, OCA - Placebo mean difference / Lumbar Spine Scan: Z-Score, Change From Baseline, LS Mean / Lumbar Spine Scan: Z-Score, Change From Baseline, OCA - Placebo mean difference: ANCOVA
Method: as §1

[3] = Titration OCA (5 mg, titrated to 10 mg after 6 months)

## CC[C@H]1[C@@H](O)[C@@H]2[C@H](CC[C@]3(C)[C@@H]([C@H](C)CCC(=O)O)CC[C@@H]23)[C@@]2(C)CC[C@@H](O)C[C@@H]12 [OCA, 3α,7α-dihydroxy-6α-ethyl-5β-cholan-24-oic acid]
[1]; 10 mg OCA
  Femoral Neck Scan: Bone Mineral Density, Change From Baseline, Mean: −0.034 g/cm^2
  Femoral Neck Scan: Bone Mineral Density, Change From Baseline, Median: −0.018 g/cm^2
  Femoral Neck Scan: Bone Mineral Density, Result, Mean: 0.813 g/cm^2
  Femoral Neck Scan: Bone Mineral Density, Result, Median: 0.779 g/cm^2
  Femoral Neck Scan: T-Score, Change From Baseline, Mean: −0.11
  Femoral Neck Scan: T-Score, Change From Baseline, Median: −0.10
  Femoral Neck Scan: T-Score, Result, Mean: −1.06
  Femoral Neck Scan: T-Score, Result, Median: −1.05
  Femoral Neck Scan: Z-Score, Change From Baseline, Mean: −0.06
  Femoral Neck Scan: Z-Score, Change From Baseline, Median: 0.00
  Femoral Neck Scan: Z-Score, Result, Mean: −0.01
  Femoral Neck Scan: Z-Score, Result, Median: −0.10
  Femoral Neck Scan: Bone Mineral Density, Change From Baseline, LS Mean: −0.04 g/cm^2
  Femoral Neck Scan: Bone Mineral Density, Change From Baseline, OCA - Placebo mean difference: −0.02 g/cm^2
  Femoral Neck Scan: T-Score, Change From Baseline, LS Mean: −0.07
  Femoral Neck Scan: T-Score, Change From Baseline, OCA - Placebo mean difference: 0.26
  Femoral Neck Scan: Z-Score, Change From Baseline, LS Mean: −0.07
  Femoral Neck Scan: Z-Score, Change From Baseline, OCA - Placebo mean difference: 0.05
[1]; [3]
  Femoral Neck Scan: Bone Mineral Density, Change From Baseline, Mean: −0.003 g/cm^2
  Femoral Neck Scan: Bone Mineral Density, Change From Baseline, Median: −0.004 g/cm^2
  Femoral Neck Scan: Bone Mineral Density, Result, Mean: 0.809 g/cm^2
  Femoral Neck Scan: Bone Mineral Density, Result, Median: 0.822 g/cm^2
  Femoral Neck Scan: T-Score, Change From Baseline, Mean: −0.03
  Femoral Neck Scan: T-Score, Change From Baseline, Median: −0.05
  Femoral Neck Scan: T-Score, Result, Mean: −1.28
  Femoral Neck Scan: T-Score, Result, Median: −1.45
  Femoral Neck Scan: Z-Score, Change From Baseline, Mean: 0.01
  Femoral Neck Scan: Z-Score, Change From Baseline, Median: 0.00
  Femoral Neck Scan: Z-Score, Result, Mean: −0.23
  Femoral Neck Scan: Z-Score, Result, Median: −0.45
  Femoral Neck Scan: Bone Mineral Density, Change From Baseline, LS Mean: −0.01 g/cm^2
  Femoral Neck Scan: Bone Mineral Density, Change From Baseline, OCA - Placebo mean difference: 0.01 g/cm^2
  Femoral Neck Scan: T-Score, Change From Baseline, LS Mean: −0.06
  Femoral Neck Scan: T-Score, Change From Baseline, OCA - Placebo mean difference: 0.27
  Femoral Neck Scan: Z-Score, Change From Baseline, LS Mean: −0.01
  Femoral Neck Scan: Z-Score, Change From Baseline, OCA - Placebo mean difference: 0.10
[1]; both OCA groups, Baseline to Month 12, subjects with PBC, p<0.05
  decrease in femoral bone mineral density T-score versus placebo: smaller decrease
[2]; 10 mg OCA
  Lumbar Spine Scan: Bone Mineral Density, Change From Baseline, Mean: −0.012 g/cm^2
  Lumbar Spine Scan: Bone Mineral Density, Change From Baseline, Median: −0.013 g/cm^2
  Lumbar Spine Scan: Bone Mineral Density, Result, Mean: 1.003 g/cm^2
  Lumbar Spine Scan: Bone Mineral Density, Result, Median: 0.976 g/cm^2
  Lumbar Spine Scan: T-Score, Change From Baseline, Mean: −0.17
  Lumbar Spine Scan: T-Score, Change From Baseline, Median: −0.10
  Lumbar Spine Scan: T-Score, Result, Mean: −1.02
  Lumbar Spine Scan: T-Score, Result, Median: −1.20
  Lumbar Spine Scan: Z-Score, Change From Baseline, Mean: −0.03
  Lumbar Spine Scan: Z-Score, Change From Baseline, Median: 0.00
  Lumbar Spine Scan: Z-Score, Result, Mean: 0.01
  Lumbar Spine Scan: Z-Score, Result, Median: 0.00
  Lumbar Spine Scan: Bone Mineral Density, Change From Baseline, LS Mean: −0.01 g/cm^2
  Lumbar Spine Scan: Bone Mineral Density, Change From Baseline, OCA - Placebo mean difference: 0.00 g/cm^2
  Lumbar Spine Scan: T-Score, Change From Baseline, LS Mean: −0.09
  Lumbar Spine Scan: T-Score, Change From Baseline, OCA - Placebo mean difference: 0.16
  Lumbar Spine Scan: Z-Score, Change From Baseline, LS Mean: −0.03
  Lumbar Spine Scan: Z-Score, Change From Baseline, OCA - Placebo mean difference: −0.05
[2]; [3]
  Lumbar Spine Scan: Bone Mineral Density, Change From Baseline, Mean: −0.014 g/cm^2
  Lumbar Spine Scan: Bone Mineral Density, Change From Baseline, Median: −0.007 g/cm^2
  Lumbar Spine Scan: Bone Mineral Density, Result, Mean: 1.013 g/cm^2
  Lumbar Spine Scan: Bone Mineral Density, Result, Median: 0.994 g/cm^2
  Lumbar Spine Scan: T-Score, Change From Baseline, Mean: −0.06
  Lumbar Spine Scan: T-Score, Change From Baseline, Median: 0.00
  Lumbar Spine Scan: T-Score, Result, Mean: −1.10
  Lumbar Spine Scan: T-Score, Result, Median: −1.35
  Lumbar Spine Scan: Z-Score, Change From Baseline, Mean: 0.00
  Lumbar Spine Scan: Z-Score, Change From Baseline, Median: 0.00
  Lumbar Spine Scan: Z-Score, Result, Mean: 0.02
  Lumbar Spine Scan: Z-Score, Result, Median: −0.20
  Lumbar Spine Scan: Bone Mineral Density, Change From Baseline, LS Mean: −0.01 g/cm^2
  Lumbar Spine Scan: Bone Mineral Density, Change From Baseline, OCA - Placebo mean difference: −0.01 g/cm^2
  Lumbar Spine Scan: T-Score, Change From Baseline, LS Mean: −0.01
  Lumbar Spine Scan: T-Score, Change From Baseline, OCA - Placebo mean difference: 0.25
  Lumbar Spine Scan: Z-Score, Change From Baseline, LS Mean: 0.00
  Lumbar Spine Scan: Z-Score, Change From Baseline, OCA - Placebo mean difference: −0.01
[2]; both OCA groups, Baseline to Month 12, subjects with PBC
  Lumbar bone mineral density change, OCA groups versus placebo: No significant difference; also recorded: not significant

Source: patent US20180042943A1, “METHODS FOR MODULATING BONE DENSITY” (Intercept Pharmaceuticals, Inc., priority 2015, published 2018)
